Test results: US20260355137A1, “NOVEL OPHTHALMIC FORMULATION” (FERTIS INDIA PVT LTD, priority 2022, published 2026)

Legend:
Format in all cases: in vivo, New Zealand rabbit
[1] = system: cataract induced left eye: lens; experiment: Microscopic observations (histopathology) of lens (Table 12); conditions: left eye (cataract induced)
Description: (§1) An illustrative ophthalmic formulation for treatment of eye disease is set forth below: The formulations provided herein below are tested in cataract induced New Zealand rabbits, and the results are discussed herein below.
(§2) Cataract was induced by injecting 0.5% Methyl Cellulose, which is replaced by aqueous humor in the rabbit eye (i.e., 0.2 mL of Aqueous humor was withdrawn and the same 0.2 mL of 0.5% Methyl cellulose was injected as a replacement). Cataract was observed within 3-4 days of 0.5% Methyl cellulose replacement. Cataract induction was performed to left eye and right eye was served as a control.
All surviving animals were euthanized on Day 29 by overdose of Thiopental Sodium. Before scheduled euthanasia, the animals were fasted overnight (water allowed) and terminal body weights were recorded. Animals were subjected to detailed macroscopic observation during necropsy. Both right (untreated/uninduced) and left (treated/induced) eyes were collected and cornea and lens were separated, preserved in Davidson fluid. Cornea and lens selected for histopathological evaluation were processed, embedded and sections were cut at 3-5 μm thickness, Sections were placed on grease-free slides and stained with Hematoxylin and Eosin. A 5-step grading system of minimum, mild, moderate, marked and severe will be used to rank microscopic findings for comparison among groups. Data was compiled based on incidences and severity of changes.

[2] = system: cataract induced left eye; experiment: Macroscopic examination, cataract induced left eye (cinnamic acid derivatives, Tables 10-11); conditions: left eye (cataract induced), macroscopic; for No Abnormality Detected, incidence: animals affected/6
Description: as §1, §2
(§3) Rabbits were observed by ophthalmoscope and slit lamp once in three days for cataract confirmation. Intraocular pressure was measured with a tonometer once in three days for the confirmation of glaucoma.

[3] = system: intraocular pressure, induced left eye; experiment: Intraocular pressure, tonometer (Table 13); design: unit not given beside the values; conditions: left eye induced/treated
Description: as §2, §3
Intra-ocular pressures were measured in animals in each group once in three days using a Tonometer. The readings were documented for each eye separately.

## O=C(/C=C/c1ccc(O)c(O)c1)OCCc1ccccc1 [Caffeic Acid Phenyl ethyl Ester, caffeic acid phenylethyl ester]
[1]
  Within Normal Histological Limits, incidence: 0/6
[1]; lens
  Epithelial proliferation, incidence: 6/6
  Lenticular Degeneration, incidence: 6/6
  Liquefaction, incidence: 6/6
[1]; lens, number of animals
  Epithelial proliferation: Marked, incidence: 1
  Epithelial proliferation: Mild, incidence: 3
  Epithelial proliferation: Minimal, incidence: 2
  Liquefaction: Mild, incidence: 2
  Liquefaction: Moderate, incidence: 4
[2]
  Opacity, cornea and red discoloured, with diffuse opacity: Moderate, incidence: 4/6
  Opacity, cornea, diffuse: Minimal, incidence: 1/6
  Opacity, cornea, diffuse: Moderate, incidence: 1/6
  No Abnormality Detected, incidence: 0/6
[3]; Day 3
  Intraocular Pressure, mean: 88.07
[3]; Day 6
  Intraocular Pressure, mean: 84.95
[3]; Day 9
  Intraocular Pressure, mean: 84.67
[3]; Day 12
  Intraocular Pressure, mean: 55.95
[3]; Day 15
  Intraocular Pressure, mean: 42.80
[3]; Day 18
  Intraocular Pressure, mean: 42.18
[3]; Day 21
  Intraocular Pressure, mean: 40.93
[3]; Day 24
  Intraocular Pressure, mean: 39.67
[3]; Day 27
  Intraocular Pressure, mean: 36.27
[3]; Day 30
  Intraocular Pressure, mean: 39.42
[3]; Day 33
  Intraocular Pressure, mean: 41.85↓↓

## O=C(/C=C/c1ccc(O)c(O)c1)NCCc1ccccc1 [Caffeic Acid Phenylethyl Amide, caffeic acid phenylethyl amide]
[1]
  Within Normal Histological Limits, incidence: 0/6
[1]; lens
  Epithelial proliferation, incidence: 2/6
  Epithelial proliferation: Absent, incidence: 4/6
  Lenticular Degeneration, incidence: 5/6
  Liquefaction, incidence: 5/6
  Liquefaction: Absent, incidence: 1/6
[1]; lens, number of animals
  Epithelial proliferation: Mild, incidence: 2
  Liquefaction: Mild, incidence: 2
  Liquefaction: Minimal, incidence: 3
[2]
  Opacity, cornea and red discoloured, with diffuse opacity: Moderate, incidence: 1/6
  Opacity, cornea, diffuse: Mild, incidence: 2/6
  Opacity, cornea, diffuse: Minimal, incidence: 3/6
  No Abnormality Detected, incidence: 0/6
[3]; Day 3
  Intraocular Pressure, mean: 86.65
[3]; Day 6
  Intraocular Pressure, mean: 79.88
[3]; Day 9
  Intraocular Pressure, mean: 78.77
[3]; Day 12
  Intraocular Pressure, mean: 72.72
[3]; Day 15
  Intraocular Pressure, mean: 50.78
[3]; Day 18
  Intraocular Pressure, mean: 49.95
[3]; Day 21
  Intraocular Pressure, mean: 45.67
[3]; Day 24
  Intraocular Pressure, mean: 49.77
[3]; Day 27
  Intraocular Pressure, mean: 36.27
[3]; Day 30
  Intraocular Pressure, mean: 25.85
[3]; Day 33
  Intraocular Pressure, mean: 36.68↓↓
